Key:
[1] = test system: A2058 (human metastatic melanoma cells, Rb-negative); test: Cellular proliferation assay (CellTiter-Glo), A2058; type: cell-based; details: A2058, 144 h, cell viability after six days
Method: (§1) Further cellular proliferation assays were conducted using the following cancer cell lines: MCF7 (breast adenocarcinoma—Rb-positive), ZR-75-1 (breast ductal carcinoma—Rb-positive), H69 (human small cell lung cancer—Rb-negative) cells, or A2058 (human metastatic melanoma cells—Rb-negative). These cells were seeded in Costar (Tewksbury, Massachusetts) 3093 96 well tissue culture treated white walled/clear bottom plates. Cells were treated with the compounds of Table 1 as nine point dose response dilution series from 10 uM to 1 nM. Cells were exposed to compounds and then cell viability was determined after either four (H69) or six (MCF7, ZR75-1, A2058) days as indicated using the CellTiter-Glo® luminescent cell viability assay (CTG; Promega, Madison, Wisconsin, United States of America) following the manufacturer's recommendations. Plates were read on BioTek (Winooski, Vermont) Syngergy2 multi-mode plate reader. The Relative Light Units (RLU) were plotted as a result of variable molar concentration and data was analyzed using Graphpad (LaJolla, California) Prism 5 statistical software to determine the EC50 for each compound.

HS68 cells = test: G1 arrest (cellular G1 and S-phase) assay, propidium iodide flow cytometry; type: cell-based, human; details: Homo sapiens, Hs68, HS68 cells
Method: HS68 cells (human skin fibroblast cell line (Rb-positive)) were stained with propidium iodide staining solution and run on Dako Cyan Flow Cytometer. The fraction of cells in G0-G1 DNA cell cycle versus the fraction in S-phase DNA cell cycle was determined using FlowJo 7.2.2 analysis.
The compounds listed in Table 1 were tested for their ability to arrest HS68 cells at the G1 phase of the cell cycle.

[2] = test system: MCF7 (breast adenocarcinoma, Rb-positive); test: Cellular proliferation assay (CellTiter-Glo), MCF7; type: cell-based; details: Homo sapiens, MCF7, 144 h, cell viability after six days
Method: as §1

[3] = test system: ZR-75-1 (breast ductal carcinoma, Rb-positive); test: Cellular proliferation assay (CellTiter-Glo), ZR-75-1; type: cell-based; details: Homo sapiens, ZR-75-1, 144 h, cell viability after six days, read-out: ZR75-1 Cellular EC50
Method: as §1

[4] = test system: H69 (human small cell lung cancer, Rb-negative) cells; test: Cellular proliferation assay (CellTiter-Glo), H69; type: cell-based; details: NCI-H69, 96 h, cell viability after four days
Method: as §1

CDK4/CyclinD1 = CDK4/CyclinD1 (Homo sapiens, UniProt P11802); test: CDK4/cyclinD1 kinase assay (Nanosyn, Caliper microfluidic kinase detection); type: biochemical; details: Table 2; 12-point dose-response, ATP at Km (200 μM), 10 hr; read-out: CDK4/CycD1 IC50
CDK4/CyclinD1, sequence (P11802 whole entry, species assumed): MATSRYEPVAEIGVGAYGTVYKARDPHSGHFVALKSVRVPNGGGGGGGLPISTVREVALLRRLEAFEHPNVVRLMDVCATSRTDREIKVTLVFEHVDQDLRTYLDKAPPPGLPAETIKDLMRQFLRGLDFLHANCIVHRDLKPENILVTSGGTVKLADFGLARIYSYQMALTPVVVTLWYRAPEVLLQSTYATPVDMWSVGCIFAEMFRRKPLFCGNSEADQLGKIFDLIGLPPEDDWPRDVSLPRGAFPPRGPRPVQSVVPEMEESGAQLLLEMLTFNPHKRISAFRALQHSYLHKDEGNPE
CDK4/CyclinD1, sequence (P24385 whole entry partner, species assumed): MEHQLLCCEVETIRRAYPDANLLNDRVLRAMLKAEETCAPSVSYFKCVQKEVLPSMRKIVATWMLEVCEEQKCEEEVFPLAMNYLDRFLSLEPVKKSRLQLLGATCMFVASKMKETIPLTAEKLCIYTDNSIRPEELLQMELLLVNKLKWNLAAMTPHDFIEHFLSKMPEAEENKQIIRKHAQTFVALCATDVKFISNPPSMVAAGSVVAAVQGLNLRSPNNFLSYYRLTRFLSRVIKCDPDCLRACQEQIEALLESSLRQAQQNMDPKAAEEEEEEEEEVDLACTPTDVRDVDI
Method: The assays were performed using microfluidic kinase detection technology (Caliper Assay Platform). The compounds were tested in 12-point dose-response format in singlicate at Km for ATP. Phosphoacceptor substrate peptide concentration used was 1 μM for all assays and Staurosporine was used as the reference compound for all assays. Specifics of each assay are as described below:
CDK4/CyclinD1: Enzyme concentration: 1 nM; ATP concentration: 200 μM; Incubation time: 10 hr.

EC50 [1] [nM]	EC50 (HS68 cells) [nM]	EC50 [2] [nM]	EC50 [3] [nM]	EC50 [4] [nM]	IC50 (CDK4/CyclinD1) [nM]	Structure (SMILES)
> 3000	95	120	229	> 3000	–	CC1CN(c2ccc(Nc3ncc4cc5n(c4n3)C3(CCCCC3)CNC5=O)nc2)CC(C)N1CC1CC1 (centres unmarked) [OO]
1310	85	85	120	2040	1.5	CC1(C)CN(c2ccc(Nc3ncc4cc5n(c4n3)C3(CCCCC3)CNC5=O)nc2)CCN1CC1CC1 [H]
–	70	47	47	> 3000	0.5	CC(C)N1CCN(c2ccc(Nc3ncc4cc5n(c4n3)C3(CCCCC3)CNC5=O)nc2)C[C@@H]1C [AA]
> 3000	150	76	–	> 3000	–	C[C@@H](O)CN1CCN(c2ccc(Nc3ncc4cc5n(c4n3)C3(CCCCC3)CNC5=O)nc2)CC1 [S]
1370	75	53	62	2580	1	CC(C)C1CN(c2ccc(Nc3ncc4cc5n(c4n3)C3(CCCCC3)CNC5=O)nc2)CCN1 (centres unmarked) [E]
> 3000	65	506	–	2160	–	CC(C)N1CCN(c2ccc(Nc3ncc4cc5n(c4n3)C3(CCCCC3)CNC5=O)nc2)C[C@H]1C [L]
> 3000	200	134	141	> 3000	–	CCOCCN1CCN(c2ccc(Nc3ncc4cc5n(c4n3)C3(CCCC3)CNC5=O)nc2)CC1 [MMM]
> 3000	110	70	82	> 3000	–	C[C@@H]1CN(c2ccc(Nc3ncc4cc5n(c4n3)C3(CCCCC3)CNC5=O)nc2)CCN1C[C@@H](C)O [J]
> 3000	100	73	77	> 3000	1.8	C[C@@H]1CN(c2ccc(Nc3ncc4cc5n(c4n3)C3(CCCCC3)CNC5=O)nc2)C[C@H](C)N1C[C@@H](C)O [MM]
> 3000	160	294	–	> 3000	2.7	CC1CN(c2ccc(Nc3ncc4cc5n(c4n3)C3(CCCCC3)CNC5=O)nc2)CCN1CC(C)(C)O (centres unmarked) [W]
1790	28	43	–	> 3000	1	CC1CCN(C2CCN(c3ccc(Nc4ncc5cc6n(c5n4)C4(CCCCC4)CNC6=O)nc3)CC2)C1 (centres unmarked) [K]
> 3000	250	453	–	> 3000	–	CC(C)(O)CN1CCN(c2ccc(Nc3ncc4cc5n(c4n3)C3(CCCC3)CNC5=O)nc2)CC1 [EEE]
1380	22	333	–	2420	2.3	C[C@H]1CN(c2ccc(Nc3ncc4cc5n(c4n3)C3(CCCCC3)CNC5=O)nc2)CCN1 [KK]
> 3000	90	122	–	> 3000	1.4	CCN(CC)C1CCN(C(=O)c2ccc(Nc3ncc4cc5n(c4n3)C3(CCCCC3)CNC5=O)nc2)C1 (centres unmarked) [JJ]
1350	70	50	29	> 3000	2.9	C[C@@H]1CN(c2ccc(Nc3ncc4cc5n(c4n3)C3(CCCCC3)CNC5=O)nc2)CCN1 [V]
–	100	164	66	–	3.1	CC(C)N1CCN(c2ccc(Nc3ncc4cc5n(c4n3)C3(CCCCC3)CNC5=O)nc2)CC1C (centres unmarked) [PP]
1640	75	–	–	2940	0.8	CC1(C)CN(c2ccc(Nc3ncc4cc5n(c4n3)C3(CCCCC3)CNC5=O)nc2)CCN1C1CC1 [BB]
–	90	201	245	–	0.4	C[C@H]1CN(c2ccc(Nc3ncc4cc5n(c4n3)C3(CCCCC3)CNC5=O)nc2)CCN1CC1CC1 [B]
–	110	75	44	> 3000	4.2	C[C@H](O)CN1CCN(c2ccc(Nc3ncc4cc5n(c4n3)C3(CCCCC3)CNC5=O)nc2)CC1 [A]

EC50 [1] [nM]	EC50 (HS68 cells) [nM]	EC50 [2] [nM]	EC50 [3] [nM]	EC50 [4] [nM]	IC50 (CDK4/CyclinD1) [nM]	Structure (SMILES)
> 3000	200	138	–	> 3000	2.4	O=C1NCC2(CCCC2)n2c1cc1cnc(Nc3ccc(C(=O)N4CCN(CC5CC5)CC4)cn3)nc12 [OOO]
1060	80	61	40	2950	2	CC1(C)CN(c2ccc(Nc3ncc4cc5n(c4n3)C3(CCCCC3)CNC5=O)nc2)CCN1 [I]
2630	70	36	50	> 3000	0.5	C[C@H]1CN(c2ccc(Nc3ncc4cc5n(c4n3)C3(CCCCC3)CNC5=O)nc2)CCN1C [R]
> 3000	90	50	38	> 3000	1.6	CCN(CC)C1CCN(c2ccc(Nc3ncc4cc5n(c4n3)C3(CCCCC3)CNC5=O)nc2)CC1 [CC]
> 3000	30	60	43	> 3000	3.3	C[C@@H]1CN(c2ccc(Nc3ncc4cc5n(c4n3)C3(CCCCC3)CNC5=O)nc2)C[C@H](C)N1 [P]
> 3000	65	–	–	> 3000	0.9	O=C1NCC2(CCCCC2)n2c1cc1cnc(Nc3ccc(N4CCC(N5CCC(C(F)(F)F)CC5)CC4)cn3)nc12 [X]
1620	90	72	–	2890	1.2	CCN(CC)C1CCN(C2CCN(c3ccc(Nc4ncc5cc6n(c5n4)C4(CCCCC4)CNC6=O)nc3)CC2)C1 (centres unmarked) [RR]
> 3000	–	–	–	> 3000	4.1	CCN(CC)C1CCN(c2ccc(Nc3ncc4cc5n(c4n3)C3(CCCCC3)CNC5=O)nc2)C1 (centres unmarked) [QQ]
–	175	257	581	–	4.6	CN(C)C1CCN(c2ccc(Nc3ncc4cc5n(c4n3)C3(CCCC3)CNC5=O)nc2)CC1 [YY]
> 3000	40	94	33	> 3000	2	CC(C)N1CCN(C(=O)c2ccc(Nc3ncc4cc5n(c4n3)C3(CCCCC3)CNC5=O)nc2)CC1 [II]
–	80	140	–	–	–	CCN1[C@H](C)CN(c2ccc(Nc3ncc4cc5n(c4n3)C3(CCCCC3)CNC5=O)nc2)C[C@@H]1C [FF]
–	110	141	54	–	3.2	C[C@H](O)CN1[C@H](C)CN(c2ccc(Nc3ncc4cc5n(c4n3)C3(CCCCC3)CNC5=O)nc2)C[C@@H]1C [Z]
–	125	216	203	–	3.8	CC(C)N1CCN(Cc2ccc(Nc3ncc4cc5n(c4n3)C3(CCCCC3)CNC5=O)nc2)CC1 [EE]
2670	40	56	29	> 3000	–	CN(C)C1CCN(c2ccc(Nc3ncc4cc5n(c4n3)C3(CCCCC3)CNC5=O)nc2)CC1 [O]
–	95	88	73	–	1.4	C[C@H](O)CN1CCN(c2ccc(Nc3ncc4cc5n(c4n3)C3(CCCCC3)CNC5=O)nc2)C[C@@H]1C [C]
–	250	–	–	–	6.8	O=C1NCC2(CCCC2)n2c1cc1cnc(Nc3ccc(N4CCC(N5CCCCC5)CC4)cn3)nc12 [HHH]
–	250	–	–	–	2	CC(C)(C)CCN1CCN(c2ccc(Nc3ncc4cc5n(c4n3)C3(CCCC3)CNC5=O)nc2)CC1(C)C [CCC]
> 3000	125	96	–	> 3000	2	O=C1NCC2(CCCCC2)n2c1cc1cnc(Nc3ccc(C(=O)N4CCN(C5CCC5)CC4)cn3)nc12 [LL]
> 3000	–	320	–	> 3000	2.3	CCC(C)CN1CCN(c2ccc(Nc3ncc4cc5n(c4n3)C3(CCCC3)CNC5=O)nc2)CC1 (centres unmarked) [AAA]

From US12285431B2, “Treatment of Rb-negative tumors using topoisomerase inhibitors in combination with cyclin dependent kinase 4/6 inhibitors” (G1 Therapeutics, Inc., priority 2014, dated 2025)
